# Tests used:
# Format in all cases: biochemical
# CDK2/CycA2 = CDK2/CycA2 (Homo sapiens, UniProt P24941); experiment: In vitro kinase TR-FRET assay CDK2/CycA2; settings: enzyme 3 nM, ATP 27 μM, read-out: CDK2 cyclinA2 activity assay: IC50
# Procedure: (§1) In vitro kinase TR-FRET assays: CDK2/CycA2, CDK2/CycE1, CDK1/cyclinB and GSK3β
# (§2) The test compounds were prepared as 10 mM stock solution in 100% DMSO. The stock solution was then serially diluted 3-fold in 100% DMSO to 10 concentrations. 200 nL of each diluted compound solution was transferred to 384-well plate in duplicate. To each well, 5 uL of enzyme and ATP mixture solution containing enzyme CDK2/CycA2, CDK2/CycE1, CDK1/cyclinB, or GSK30 (final concentrations 3 nM, 0.6 nM, 0.3 nM, 0.6 nM, respectively) and ATP (final concentrations 27 μM, 82 μM, 56 μM, 7.6 μM, respectively) in the assay buffer (50 mM HEPES, pH7.5, 10 mM MgCl2, 1 mM DTT, 0.01% BSA, 0.01% Triton X-100). For negative control, 5 uL of assay buffer was added instead. The plate was incubated at room temperature for 10 min. 5 uL of peptide solution containing ULight-4E-BP1 peptide (final concentrations 50 nM) in the assay buffer was subsequently added into each well to initiate the reaction. By incubation at room temperature for 1 hour, 10 uL of 2 nM Eu-anti-phospho-4E BP1 antibody was then added for detection. After one hour incubation at room temperature, all samples were subjected to read the TR-FRET signal on Envision with excitation at 340 nm and emission fluorescence at 615 nm and 665 nm. IC50 values were then calculated by plotting dose-response curves and then using the XLfit application in Excel software.
# CDK1/cyclinB = CDK1/cyclinB (Homo sapiens, UniProt P06493); experiment: In vitro kinase TR-FRET assay CDK1/cyclinB; settings: enzyme 0.3 nM, ATP 56 μM
# CDK1/cyclinB, sequence (P06493 whole entry): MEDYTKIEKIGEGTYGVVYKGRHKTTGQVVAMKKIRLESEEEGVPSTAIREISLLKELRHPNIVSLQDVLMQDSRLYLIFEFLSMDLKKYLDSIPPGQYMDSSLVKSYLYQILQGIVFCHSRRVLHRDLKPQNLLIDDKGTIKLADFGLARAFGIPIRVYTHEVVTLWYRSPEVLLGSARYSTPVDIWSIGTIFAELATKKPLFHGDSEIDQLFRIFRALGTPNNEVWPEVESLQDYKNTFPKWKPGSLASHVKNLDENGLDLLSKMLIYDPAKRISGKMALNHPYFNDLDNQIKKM
# CDK1/cyclinB, sequence (P14635 whole entry partner): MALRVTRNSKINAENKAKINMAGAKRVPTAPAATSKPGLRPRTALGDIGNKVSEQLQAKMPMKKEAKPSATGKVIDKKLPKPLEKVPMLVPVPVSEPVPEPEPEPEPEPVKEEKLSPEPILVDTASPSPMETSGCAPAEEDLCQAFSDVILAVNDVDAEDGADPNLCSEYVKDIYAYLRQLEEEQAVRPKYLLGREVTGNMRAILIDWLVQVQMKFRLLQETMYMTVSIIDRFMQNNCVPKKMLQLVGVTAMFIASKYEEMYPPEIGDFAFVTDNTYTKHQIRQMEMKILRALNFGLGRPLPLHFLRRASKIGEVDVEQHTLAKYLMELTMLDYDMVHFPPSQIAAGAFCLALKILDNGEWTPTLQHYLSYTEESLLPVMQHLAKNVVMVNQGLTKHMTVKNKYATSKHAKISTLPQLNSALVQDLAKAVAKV
# Procedure: as §1, §2
# CDK2/CycE1 = CDK2/CycE1 (Homo sapiens, UniProt P24941); experiment: In vitro kinase TR-FRET assay CDK2/CycE1; settings: enzyme 0.6 nM, ATP 82 μM, read-out: CDK2 cyclinE1 activity assay: IC50
# Procedure: as §1, §2
# GSK3β = GSK3β (Homo sapiens, UniProt P49841); experiment: In vitro kinase TR-FRET assay GSK3β; settings: enzyme 0.6 nM, ATP 7.6 μM
# GSK3β, sequence (P49841 whole entry, species assumed): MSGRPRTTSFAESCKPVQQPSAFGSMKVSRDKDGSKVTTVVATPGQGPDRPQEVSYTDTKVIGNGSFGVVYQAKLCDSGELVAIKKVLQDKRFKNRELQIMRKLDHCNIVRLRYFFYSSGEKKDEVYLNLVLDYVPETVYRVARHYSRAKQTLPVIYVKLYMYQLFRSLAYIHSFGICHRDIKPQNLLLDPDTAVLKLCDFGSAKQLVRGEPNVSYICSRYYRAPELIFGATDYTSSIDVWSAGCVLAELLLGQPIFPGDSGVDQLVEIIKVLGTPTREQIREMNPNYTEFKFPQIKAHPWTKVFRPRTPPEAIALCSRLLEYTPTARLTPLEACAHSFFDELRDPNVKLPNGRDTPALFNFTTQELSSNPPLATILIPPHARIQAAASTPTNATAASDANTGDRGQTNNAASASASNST
# Procedure: as §1, §2
SMILES,IC50 (CDK2/CycA2) [nM],IC50 (CDK1/cyclinB) [nM],IC50 (CDK2/CycE1) [nM],IC50 (GSK3β) [nM]
"Cc1c([C@@H]2CC[C@H](OC(=O)NC(C)C)C2)n[nH]c1Nc1ccc2c(c1)CCS2(=O)=O (racemic) [Example 24, cis 3-{5-[(1,1-dioxo-2,3-dihydro-1λ6-benzothiophen-5-yl)amino]-4-methyl-1H-pyrazol-3-yl}cyclopentyl (prop-2-ylamino)methanoate]",500 to 1000,> 1000,50 to 500,> 1000
"CC(C)NC(=O)O[C@@H]1CC[C@H](c2cc(Nc3ccc4c(c3)C(C)(C)NS4(=O)=O)n[nH]2)C1 [Example 13, (1R,3S)-3-(3-((3,3-dimethyl-1,1-dioxido-2,3-dihydrobenzo[d]isothiazol-5-yl)amino)-1H-pyrazol-5-yl)cyclopentyl isopropylcarbamate]",< 50,50 to 500,< 50,50 to 500
"CC(C)NC(=O)O[C@@H]1CC[C@H](c2[nH]nc(Nc3ccc4c(c3)CNS4(=O)=O)c2F)C1 [Example 14, (1R,3S)-3-(3-((1,1-dioxido-2,3-dihydrobenzo[d]isothiazol-5-yl)amino)-4-fluoro-1H-pyrazol-5-yl)cyclopentyl isopropylcarbamate]",< 50,50 to 500,< 50,> 1000
"CC(C)NC(=O)O[C@@H]1CC[C@H](c2cc(Nc3ccc4c(c3)N(C)C(=O)NS4(=O)=O)n[nH]2)C1 [Example 18, (1R,3S)-3-(3-((4-methyl-1,1-dioxido-3-oxo-3,4-dihydro-2H-benzo[e][1,2,4]thiadiazin-6-yl)amino)-1H-pyrazol-5-yl)cyclopentyl isopropylcarbamate]",< 50,500 to 1000,< 50,50 to 500
"CC(C)NC(=O)O[C@@H]1CC[C@H](c2cc(Nc3ccc4c(c3)C(=O)NC4)n[nH]2)C1 [Example 20, (1R,3S)-3-{5-[(3-oxo-2,3-dihydro-1H-isoindol-5-yl)amino]-2H-pyrazol-3-yl}cyclopentyl (prop-2-ylamino)methanoate]",< 50,500 to 1000,< 50,> 1000
"CC(C)NC(=O)O[C@@H]1CC[C@H](c2cc(Nc3cccc4c3S(=O)(=O)CC4)n[nH]2)C1 [Example 35, (1R,3S)-3-{5-[(1,1-dioxo-2,3-dihydro-1λ6-benzo[2,1-b]thiophen-7-yl)amino]-2H-pyrazol-3-yl}cyclopentyl (prop-2-ylamino)methanoate]",> 1000,> 1000,> 1000,> 1000
"CC(C)NC(=O)O[C@@H]1CC[C@H](c2cc(Nc3ccc4c(c3)S(=O)(=O)CCC4)n[nH]2)C1 [Example 39, (1R,3S)-3-(3-((1,1-dioxidothiochroman-7-yl)amino)-1H-pyrazol-5-yl)cyclopentyl isopropylcarbamate]",< 50,50 to 500,< 50,50 to 500
"Cc1c(Nc2ccc3c(c2)CS(=O)(=O)C3)n[nH]c1[C@H]1CC[C@@H](OC(=O)NC(C)C)C1 [Example 43, (1R,3S)-3-{5-[(2,2-dioxo-1,3-dihydro-2λ^6-benzo[c]thiophen-5-yl)amino]-4-methyl-2H-pyrazol-3-yl}cyclopentyl (prop-2-ylamino)methanoate]",50 to 500,> 1000,50 to 500,> 1000
"Cc1c(Nc2ccc3c(c2)CS(=O)(=O)C3)n[nH]c1[C@H]1CC[C@@H](OC(=O)NC(C)(C)C)C1 [Example 44, (1R,3S)-3-{5-[(2,2-dioxo-1,3-dihydro-2%6-benzo[c]thiophen-5-yl)amino]-4-methyl-2H-pyrazol-3-yl}cyclopentyl [(2-methylprop-2-yl)amino]methanoate]",50 to 500,> 1000,50 to 500,> 1000
"CC(C)NC(=O)O[C@@H]1CC[C@H](c2cc(Nc3cccc4c3CS(=O)(=O)N4)n[nH]2)C1 [Example 48, (1R,3S)-3-(3-((2,2-dioxido-1,3-dihydrobenzo[c]isothiazol-4-yl)amino)-1H-pyrazol-5-yl)cyclopentyl isopropylcarbamate]",50 to 500,> 1000,50 to 500,> 1000
"CC(C)NC(=O)O[C@@H]1CC[C@H](c2cc(Nc3cccc4c3N(C)S(=O)(=O)C4)n[nH]2)C1 [Example 51, (1R,3S)-3-{5-[(1-methyl-2,2-dioxo-1,3-dihydro-2λ^6-benzo[2,1-c][1,2]thiazol-7-yl)amino]-2H-pyrazol-3-yl}cyclopentyl (prop-2-ylamino)methanoate]",500 to 1000,50 to 500,50 to 500,> 1000
"CC(C)NC(=O)O[C@@H]1CC[C@H](c2cc(Nc3c(F)ccc4c3CCS4(=O)=O)n[nH]2)C1 [Example 52, (1R,3S)-3-(3-((5-fluoro-1,1-dioxido-2,3-dihydrobenzo[b]thiophen-4-yl)amino)-1H-pyrazol-5-yl)cyclopentyl isopropylcarbamate]",50 to 500,> 1000,< 50,> 1000
"CC(C)NC(=O)O[C@@H]1CC[C@H](c2cc(Nc3cccc4c3CCS(=O)(=O)N4)n[nH]2)C1 [Example 53, (1R,3S)-3-(3-((2,2-dioxido-3,4-dihydro-1H-benzo[c][1,2]thiazin-5-yl)amino)-1H-pyrazol-5-yl)cyclopentyl isopropylcarbamate]",< 50,500 to 1000,< 50,> 1000
"CC(C)NC(=O)O[C@@H]1CC[C@H](c2cc(Nc3cc4c(cc3F)S(=O)(=O)CC4)n[nH]2)C1 [Example 54, (1R,3S)-3-(3-((6-fluoro-1,1-dioxido-2,3-dihydrobenzo[b]thiophen-5-yl)amino)-1H-pyrazol-5-yl)cyclopentyl isopropylcarbamate]",< 50,> 1000,< 50,> 1000
"O=C(NC1CC1)O[C@@H]1CC[C@H](c2cc(Nc3nccc4c3CCS4(=O)=O)n[nH]2)C1 [Example 71, (1R,3S)-3-{5-[(1,1-dioxo-2,3-dihydro-1λ^6-thieno[3,2-c]pyridin-4-yl)amino]-2H-pyrazol-3-yl}cyclopentyl (cyclopropylamino)methanoate]",< 50,50 to 500,< 50,50 to 500
"CC(C)NC(=O)O[C@@H]1CC[C@H](c2cc(Nc3cc4c(cn3)CCS4(=O)=O)n[nH]2)C1 [Example 72, (1R,3S)-3-{5-[(1,1-dioxo-2,3-dihydro-1λ^6-thieno[3,2-c]pyridin-6-yl)amino]-1H-pyrazol-3-yl}cyclopentyl (prop-2-ylamino)methanoate]",< 50,< 50,< 50,> 1000
